From patent publication US20230355596A1, “COMPOSITIONS AND METHODS OF USING NMDAR INHIBITORS AND KINASE INHIBITORS TO TREAT LIVER CANCER” (The University of Hong Kong, priority 2022, published 2023)

Legend:
MHCC97L cells [1] = assay: Cell cycle analysis (PI staining, flow cytometry); assay type: cell-based, human; conditions: 10 μM ifenprodil, 5 μM sorafenib, 24 hours
From the text: Cells transduced with florescent proteins were trypsinized, washed with PBS, and resuspended in PBS containing 2% FBS. Resuspended cells were subjected to flow cytometry analysis using the BD FACSCantoII, ACEA NovoCyte Quanteon (Agilent) or BD LSR Fortessa Analyzer (BD Biosciences). The signal of TurboRFP and EGFP was detected by a 561 nm yellow-green laser (610/20 nm) and a 488 nm blue laser (530/30 nm), respectively. For cell cycle analysis, cells harvested by trypsinization were washed by PBS. Cell pellets were fixed by ice-cold 70% ethanol at 4° C. for 1 hour. The fixed cells were rehydrated by replacing ethanol with PBS for 15 minutes at room temperature for cell cycle analysis. To remove RNAs, 5 μl RNase A (10 mg/ml) per 500 μl PBS was added and incubated at 37° C. for 15 minutes. The DNA contents were stained by propidium iodide (ThermoFisher Scientific) for 1 hour at room temperature in dark. Signal was detected by a 561 nm yellow-green laser (581/15 nm). FlowJo software (v10.5.3, Becton Dickinson) was used for data analysis. For cell sorting, cells were collected following the normal trypsinization and PBS washing steps. Cell pellets were resuspended in PBS with 2% FBS and 2X antibiotic-antimycotic. […] Signal was detected by a 488 nm blue laser (530/40 nm). ˜500-fold more cells were sorted into culture medium supplemented with 10% FBS and 2X antibiotic-antimycotic. […]

RIL-175 cells = assay: Lung metastasis model (tail vein injection); assay type: in vivo, mouse; conditions: nude mice, 20 mg/kg ifenprodil, 28 mg/kg sorafenib, 10 days
HCC organoids = assay: Limiting dilution spheroid formation assay on organoids; assay type: cell-based, human; conditions: 20 μM ifenprodil and 8 μM sorafenib, 3 days
Method: Resuspended cells were cultured in DMEM/F12 (ThermoFisher Scientific) medium containing 0.25% methylcellulose (Sigma-Aldrich), 20 ng/ml EGF (Sigma-Aldrich), 10 ng/ml FGF (Sigma-Aldrich), 4 μg/ml insulin (Sigma-Aldrich), 1% B27 (ThermoFisher Scientific), and 1% antibiotic-antimycotic (ThermoFisher Scientific). Serial dilution of cells (5, 10, 20, 50, and 100 cells from the HCC cell lines and cells dissociated from the xenografts; 10, 20, 50, 100, 200 cells from the HCC organoids) were seeded onto a 96-well plate in 6 replicates for each dilution. Fresh medium was replenished every two days. The number of wells with spheroids formed were counted after a 10-day culture. The stem cell frequency was calculated using ELDA: Extreme Limiting Dilution Analysis (internet site bioinf.wehi.edu.au/software/elda/). In the data plots, the y-axis “fraction nonresponding” refers to the log proportion of number of cultures not responding to form spheroids, while the x-axis “dose (number of cells)” refers to the number of cells used in each culture. The slope of the line is the log-active cell fraction, representing the estimated active cell frequency in forming spheroids, and the dotted lines gives the 95% confidence interval.

MHCC97L cells [2] = assay: RNA-sequencing of drug-treated cells; assay type: cell-based, human; conditions: 10 μM ifenprodil, 5 μM sorafenib, 24 hours
Method: 3×10^5 MHCC97L cells were seeded onto a 10 -cm dish. 10 μM ifenprodil, 5 μM sorafenib, or both were added to the cells 1 day after seeding, and the control group was treated with DMSO (Sigma-Aldrich). After 24 hours of drug treatment, RNA was extracted using the MiniBEST Universal RNA Extraction Kit (TaKaRa) following the manufacturer's protocol. The final product was eluted in DEPC-treated H2O (ThermoFisher Scientific). RNA-seq experiments were performed at the Centre for Genomic Sciences (LKS Faculty of Medicine, The University of Hong Kong). The Illumina adaptors of the paired-end raw sequence reads were trimmed by Trimmomatic 0.39. The STAR aligner version 2.7 was used to align the sequence reads to the human genome (GRCh38.p13, Ensembl release 99) and quantify read counts for each Ensembl gene feature, which generated the raw count gene matrix. Differential expression analysis was performed in R (v 3.6.3) using DESeq2 (1.26.0) with the raw count matrix as input. Three biological replicates each for the ifenprodil-, sorafenib-, and ifenprodil+sorafenib combination-treated groups are compared against the DMSO-treated negative control group. Differentially expressed genes (DEGs) were identified as genes with the absolute values of its shrunken log2 fold-changes bigger than 1 and a false discovery rate smaller than 0.05. Gene annotation was done using the bioMaRt (2.42.1) package with Ensembl Human genes (GRCh38.p13) dataset. Gene ontology enrichment analysis was performed on up/down regulated DEGs retrieved from either ifenprodil, sorafenib, or ifenprodil+sorafenib treatment using string v11.0 (internet site: string-db.org/). Top hits Gene ontologies (biological processes) were identified as GO enriched with a false discovery rate less than 0.01 and contain more than 40 observations for over-expressions and down-regulations of DEGs in total across all treatments. More specific GO terms containing fewer than 3000 genes and fewer than 300 observations across all treatments were then focused on.

Structure (SMILES)	G1-phase cell-cycle arrest (MHCC97L cells [1])	metastases of mouse HCC cells to form tumors in the lung (RIL-175 cells)	ability of HCC organoids to assemble tumor spheroids (HCC organoids)	CDK1A expression (RNA-seq) compared to non-treated cells (MHCC97L cells [2])	CDK2 expression (RNA-seq) compared to non-treated cells (MHCC97L cells [2])	DDIT3 expression (RNA-seq) compared to non-treated cells (MHCC97L cells [2])	ERN1 expression (RNA-seq) compared to non-treated cells (MHCC97L cells [2])
CC(C(O)c1ccc(O)cc1)N1CCC(Cc2ccccc2)CC1 (centres unmarked) [Ifenprodil, ifenprodil]	not with either IFEN or SOR alone	did not affect the metastases	not either drug alone	significantly upregulated	significantly downregulated	significantly upregulated	no differences were observed
CNC(=O)c1cc(Oc2ccc(NC(=O)Nc3ccc(Cl)c(C(F)(F)F)c3)cc2)ccn1 [Sorafenib, sorafenib]	not with either IFEN or SOR alone	did not affect the metastases	not either drug alone	significantly upregulated	significantly downregulated	significantly upregulated	significantly upregulated
